Data from paper PMC5694347 (Clinical cancer research : an official journal of the …, 2015).

Tested on: relapsed and/or refractory lymphoma or MM
Test: Antitumor activity: disease response
Format: in vivo, human

## NS(=O)(=O)OC[C@@H]1C[C@@H](n2ccc3c(N[C@H]4CCc5ccccc54)ncnc32)C[C@@H]1O [pevonedistat]
5 MM patients who received ≥5 cycles
  Duration of SD: 3.22–6.01 months
7 lymphoma patients who received ≥5 cycles
  Duration of SD: 3.25–9.53 months
MM patients
  Best response in MM patients: best responses of only SD
